# Measurements taken from patent publication US12077605B2, “Cysteine protease inhibitors and methods of use thereof” (ANIXA BIOSCIENCES, INC., priority 2022, dated 2024).
# Target: SARS-CoV-2 main protease M^pro (Severe acute respiratory syndrome coronavirus 2 (2019-nCoV) (SARS-CoV-2), UniProt P0DTD1)
# Assay: Mpro enzyme activity assay (biochemical FRET-based)
# Settings: recombinant Mpro (Ser1-Gln306); EDANS/Dabcyl FRET substrate peptide 2 μM; 30 min pre-incubation; pH 7.3; read-out: Mpro inhibition IC50
smiles,measurement,value
"CNC(=O)C(=O)[C@H](CN1CCNC1=O)NC(=O)[C@H](CC(C)C)NC(=O)c1cc2c(OC)cccc2[nH]1 [compound 2, 4-methoxy-N-((S)-4-methyl-1-(((S)-4-(methylamino)-3,4-dioxo-1-(2-oxoimidazolidin-1-yl)butan-2-yl)amino)-1-oxopentan-2-yl)-1H-indole-2-carboxamide]",IC50,114 nM
